Key:
[1] = molecular target: T1, recombinant USP1 protein (Homo sapiens, UniProt O94782, DEL125-138/DEL229-408/DEL608-737); experiment: Binding affinity to recombinant USP1 protein by differential scanning fluorimetry; settings: compound 100 µM; 0.03 mg/mL USP1 (Δ1-66, Δ125-138, Δ229-408, Δ608-737); Tm with compound minus Tm with DMSO; read-out: ΔTm (°C)
T1 sequence (O94782 with tags, fused parts or gaps DEL125-138/DEL229-408/DEL608-737): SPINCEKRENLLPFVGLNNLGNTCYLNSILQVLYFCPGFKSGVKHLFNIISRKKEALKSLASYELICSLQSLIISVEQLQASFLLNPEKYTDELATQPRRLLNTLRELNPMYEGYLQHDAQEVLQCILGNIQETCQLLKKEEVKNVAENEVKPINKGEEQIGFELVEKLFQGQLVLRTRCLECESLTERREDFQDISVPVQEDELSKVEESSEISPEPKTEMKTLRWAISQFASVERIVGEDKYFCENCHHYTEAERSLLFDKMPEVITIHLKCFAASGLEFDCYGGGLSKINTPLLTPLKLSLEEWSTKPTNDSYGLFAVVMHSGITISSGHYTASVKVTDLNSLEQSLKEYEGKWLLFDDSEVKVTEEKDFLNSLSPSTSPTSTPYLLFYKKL
Procedure, shortened: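 Thermal shift readout: ΔTm is the compound-well melting temperature less the DMSO-well value, measured by real-time PCR. Compounds tested at 100 µM final against 0.03 mg/mL truncated USP1 (Δ1-66, Δ125-138, Δ229-408, Δ608-737) in pH 8.0 Tris buffer containing 150 mM NaCl, 2% glycerol, 1 mM DTT.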

[2] = test system: UWB1.289 cells; experiment: Cell proliferation inhibitory activity in BRCA1/2-mutant or HRD-positive cells (Cell Titer-Glo); type: cell-based; settings: UWB1289; UWB1.289 cells, 144 hours after compound treatment, Cell Titer-Glo, 1.5 nM to 10 µM; read-out: GI50 UWB1.289 BRCA1 mut
Procedure, shortened: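 GI50 from CellTiter-Glo luminescence after 144 h compound exposure at 37 °C. Cells seeded at 1,000 per well in MEBM/RPMI1640 mix 16–24 h beforehand; […] from 10 µM down to 1.5 nM final (3-fold steps).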

Question: How did the ΔTm at 100 µM [1] turn out when `COc1ncnc(C2CC2)c1-c1ncc2cc(C(=O)N[C@H]3CN(C)C[C@@H]3F)n(Cc3ccc(-c4nc(C(F)(F)F)cn4C)cc3)c2n1` [Example 181, 2-(4-cyclopropyl-6-methoxypyrimidin-5-yl)-N-((3S,4S)-4-fluoro-1-methylpyrrolidin-3-yl)-7-(4-(1-methyl-4-(trifluoromethyl)-1H-imidazol-2-yl)benzyl)-7H-pyrrolo[2,3-d]pyrimidine-6-carboxamide] was run?
Answer: > 5 °C

Question: And the GI50 [2]?
Answer: < 100 nM

Question: What does the source list for `COc1ncnc(C2CC2)c1-c1ncc2cc(C(=O)N[C@H]3CN(C)C[C@H]3F)n(Cc3ccc(-c4nc(C(F)(F)F)cn4C)cc3)c2n1` [Example 182, 2-(4-cyclopropyl-6-methoxypyrimidin-5-yl)-N-((3S,4R)-4-fluoro-1-methylpyrrolidin-3-yl)-7-(4-(1-methyl-4-(trifluoromethyl)-1H-imidazol-2-yl)benzyl)-7H-pyrrolo[2,3-d]pyrimidine-6-carboxamide]?
Answer: ΔTm at 100 µM [1]: > 5 °C; GI50 [2]: < 100 nM

Question: Which ΔTm at 100 µM [1] does the source give for `[2H]C([2H])([2H])n1cc(C(F)(F)F)nc1-c1ccc(Cn2c(C(=O)NC)cc3cnc(-c4c(OC)ncnc4C4CC4)nc32)cc1` [Example 183, 2-(4-cyclopropyl-6-methoxypyrimidin-5-yl)-N-methyl-7-(4-(1-(methyl-d3)-4-(trifluoromethyl)-1H-imidazol-2-yl)benzyl)-7H-pyrrolo[2,3-d]pyrimidine-6-carboxamide] here?
Answer: > 5 °C

Question: What about the GI50 [2] of the same compound?
Answer: < 100 nM

Question: With `CNC(=O)c1cc2cnc(-c3c(OC4CC4)ncnc3C3CC3)nc2n1Cc1ccc(-c2nc(C(F)(F)F)cn2C)cc1` [Example 184, 2-(4-cyclopropyl-6-cyclopropoxypyrimidin-5-yl)-N-methyl-7-(4-(1-methyl-4-(trifluoromethyl)-1H-imidazol-2-yl)benzyl)-7H-pyrrolo[2,3-d]pyrimidine-6-carboxamide] as the compound, how does the ΔTm at 100 µM [1] read?
Answer: > 5 °C

Question: And the GI50 [2]?
Answer: < 100 nM

Question: Which ΔTm at 100 µM [1] does the source give for `COc1ncnc(C2CC2)c1-c1ncc2cc(C(=O)NC3CCN(C)CC3(F)F)n(Cc3ccc(-c4nc(C(F)(F)F)cn4C)cc3)c2n1` (centres unmarked) [Example 185, 2-(4-cyclopropyl-6-methoxypyrimidin-5-yl)-N-(3,3-difluoro-1-methylpiperidin-4-yl)-7-(4-(1-methyl-4-(trifluoromethyl)-1H-imidazol-2-yl)benzyl)-7H-pyrrolo[2,3-d]pyrimidine-6-carboxamide] here?
Answer: > 5 °C

Question: And the GI50 [2]?
Answer: < 100 nM

Question: How did the ΔTm at 100 µM [1] turn out when `CNC(=O)c1cc2cnc(-c3c(Cl)cnn3C)nc2n1Cc1ccc(-c2nc(C(F)(F)F)cn2C)cc1` [Example 186, 2-(4-chloro-1-methyl-1H-pyrazol-5-yl)-N-methyl-7-(4-(1-methyl-4-(trifluoromethyl)-1H-imidazol-2-yl)benzyl)-7H-pyrrolo[2,3-d]pyrimidine-6-carboxamide] was run?
Answer: > 5 °C

Question: What about the GI50 [2] of the same compound?
Answer: < 100 nM

Question: `CNC(=O)c1cc2cnc(-c3c(OC)ncnc3C3CC3)nc2n1Cc1ccc(-c2nc(C(F)(F)F)cn2[C@@H]2CCN(C)C[C@H]2F)cc1` [Example 187, 2-(4-cyclopropyl-6-methoxypyrimidin-5-yl)-7-(4-(1-((3R,4R)-3-fluoro-1-methylpiperidin-4-yl)-4-(trifluoromethyl)-1H-imidazol-2-yl)benzyl)-N-methyl-7H-pyrrolo[2,3-d]pyrimidine-6-carboxamide] was tested. Which ΔTm at 100 µM [1] did it give?
Answer: > 5 °C

Question: And the GI50 [2]?
Answer: < 100 nM

Question: How did the ΔTm at 100 µM [1] turn out when `CNC(=O)c1cc2cnc(-c3c(OC)ncnc3C3CC3)nc2n1Cc1ccc(-n2nc(C(C)(C)O)cc2C)cc1` [Example 188, 2-(4-cyclopropyl-6-methoxypyrimidin-5-yl)-7-(4-(3-(2-hydroxypropan-2-yl)-5-methyl-1H-pyrazol-1-yl)benzyl)-N-methyl-7H-pyrrolo[2,3-d]pyrimidine-6-carboxamide] was run?
Answer: > 5 °C

Question: And the GI50 [2]?
Answer: 100 to 500 nM

Question: `CNC(=O)c1cc2cnc(-c3c(OC)ncnc3C3CC3)nc2n1Cc1ccc(-c2nc(C(F)(F)F)cn2[C@H]2CCN(C)C[C@@H]2F)cc1` [Example 189, 2-(4-cyclopropyl-6-methoxypyrimidin-5-yl)-7-(4-(1-((3S,4S)-3-fluoro-1-methylpiperidin-4-yl)-4-(trifluoromethyl)-1H-imidazol-2-yl)benzyl) -N-methyl-7H-pyrrolo [2,3-d]pyrimidine-6-carboxamide] was tested. Which ΔTm at 100 µM [1] did it give?
Answer: > 5 °C

Question: What about the GI50 [2] of the same compound?
Answer: < 100 nM

Question: With `COc1ncnc(C2CC2)c1-c1ncc2cc(C(=O)NC[C@@H](O)C(C)C)n(Cc3ccc(-c4nc(C(F)(F)F)cn4C)cc3)c2n1` [Example 190, (S)-2-(4-cyclopropyl-6-methoxypyrimidin-5-yl)-N-(2-hydroxy-3-methylbutyl)-7-(4-(1-methyl-4-(trifluoromethyl)-1H-imidazol-2-yl)benzyl)-7H-pyrrolo[2,3-d]pyrimidine-6-carboxamide] as the compound, how does the ΔTm at 100 µM [1] read?
Answer: > 5 °C

Question: What about the GI50 [2] of the same compound?
Answer: < 100 nM

Question: `COc1ncnc(C2CC2)c1-c1ncc2cc(C(=O)N[C@@H](C)CCO)n(Cc3ccc(-c4nc(C(F)(F)F)cn4C)cc3)c2n1` [Example 191, (S)-2-(4-cyclopropyl-6-methoxypyrimidin-5-yl)-N-(4-hydroxybutan-2-yl)-7-(4-(1-methyl-4-(trifluoromethyl)-1H-imidazol-2-yl)benzyl)-7H-pyrrolo[2,3-d]pyrimidine-6-carboxamide] was tested. Which ΔTm at 100 µM [1] did it give?
Answer: > 5 °C

Question: What about the GI50 [2] of the same compound?
Answer: < 100 nM

Question: Which ΔTm at 100 µM [1] does the source give for `CNC(=O)c1cc2cnc(-c3cccc4c3N(C)CC4)nc2n1Cc1ccc(-c2nc(C(F)(F)F)cn2C)cc1` [Example 193, N-methyl-7-(4-(1-methyl-4-(trifluoromethyl)-1H-imidazol-2-yl)benzyl)-2-(1-methylindolin-7-yl)-7H-pyrrolo[2,3-d]pyrimidine-6-carboxamide] here?
Answer: < 5 °C

Question: And the GI50 [2]?
Answer: < 100 nM

Question: How did the ΔTm at 100 µM [1] turn out when `CNC(=O)c1cc2cnc(-c3c(OC)ncnc3C3CC3)nc2n1Cc1ccc(-c2nc(C(F)(F)F)cn2C)c(OC)c1` [Example 194, 2-(4-cyclopropyl-6-methoxypyrimidin-5-yl)-7-(3-methoxy-4-(1-methyl-4-(trifluoromethyl)-1H-imidazol-2-yl)benzyl)-N-methyl-7H-pyrrolo[2,3-d]pyrimidine-6-carboxamide] was run?
Answer: > 5 °C

Question: What about the GI50 [2] of the same compound?
Answer: 100 to 500 nM

Question: For `[2H]C([2H])([2H])N(C(=O)c1cc2cnc(-c3c(OC)ncnc3C3CC3)nc2n1Cc1ccc(-c2nc(C(F)(F)F)cn2C)cc1)C([2H])([2H])[2H]` [Example 195, 2-(4-cyclopropyl-6-methoxypyrimidin-5-yl)-N,N-bis(methyl-d3)-7-(4-(1-methyl-4-(trifluoromethyl)-1H-imidazol-2-yl)benzyl)-7H-pyrrolo[2,3-d]pyrimidine-6-carboxamide], which ΔTm at 100 µM [1] is on record?
Answer: > 5 °C

Question: And the GI50 [2]?
Answer: 100 to 500 nM

Question: Which ΔTm at 100 µM [1] does the source give for `COc1ncnc(C2CC2)c1-c1ncc2cc(C(=O)N3CC(O)C3)n(Cc3ccc(-c4nc(C(F)(F)F)cn4C)cc3)c2n1` [Example 196, (2-(4-cyclopropyl-6-methoxypyrimid in-5-yl)-7-(4-(1-methyl-4-(trifluoromethyl)-1H-imidazol-2-yl)benzyl)-7H-pyrrolo[2,3-d]pyrimidin-6-yl) (3-hydroxyazetidi n-1-yl)methanone] here?
Answer: > 5 °C

Question: And the GI50 [2]?
Answer: < 100 nM

Question: How did the ΔTm at 100 µM [1] turn out when `COc1ncnc(C2CC2)c1-c1ncc2cc(C(=O)NC(C)(C)CO)n(Cc3ccc(-c4nc(C(F)(F)F)cn4C)cc3)c2n1` [Example 197, 2-(4-cyclopropyl-6-methoxypyrimidin-5-yl)-N-(1-hydroxy-2-methylpropan-2-yl)-7-(4-(1-methyl-4-(trifluoromethyl)-1H-imidazol-2-yl)benzyl)-7H-pyrrolo[2,3-d]pyrimidine-6-carboxamide] was run?
Answer: > 5 °C

Question: And the GI50 [2]?
Answer: < 100 nM

Question: With `CNC(=O)c1cc2cnc(-c3c(OC)ncnc3C3CC3)nc2n1Cc1ccc(-n2nc(C(F)(F)F)cc2-c2ccco2)cc1` [Example 198, 2-(4-cyclopropyl-6-methoxypyrimidin-5-yl)-7-(4-(5-(furan-2-yl)-3-(trifluoromethyl)-1H-pyrazol-1-yl)benzyl)-N-methyl-7H-pyrrolo[2,3-d]pyrimidine-6-carboxamide] as the compound, how does the ΔTm at 100 µM [1] read?
Answer: > 5 °C

Question: And the GI50 [2]?
Answer: 100 to 500 nM

Question: `COc1ncnc(C2CC2)c1-c1ncc2cc(C(=O)N[C@@H]3CCN(C)[C@H](C)C3)n(Cc3ccc(-c4nc(C(F)(F)F)cn4C)cc3)c2n1` [Example 199, 2-(4-cyclopropyl-6-methoxypyrimidin-5-yl)-N-((2R,4R)-1,2-dimethylpiperidin-4-yl)-7-(4-(1-methyl-4-(trifluoromethyl)-1H-imidazol-2-yl)benzyl)-7H-pyrrolo[2,3-d]pyrimidine-6-carboxamide] was tested. Which ΔTm at 100 µM [1] did it give?
Answer: > 5 °C

Question: And the GI50 [2]?
Answer: < 100 nM

Question: How did the ΔTm at 100 µM [1] turn out when `CNC(=O)c1cc2cnc(-c3c(OC)ncnc3C3CC3)nc2n1Cc1ccc(-c2nc(C(F)(F)F)c3n2CCCC3)cc1` [Example 200, 2-(4-cyclopropyl-6-methoxypyrimidin-5-yl)-N-methyl-7-(4-(1-(trifluoromethyl) -5,6,7,8-tetrahydroimidazo[1,5-a]pyridin-3-yl)benzyl)-7H-pyrrolo[2,3-d]pyrimidine-6-carboxamide] was run?
Answer: > 5 °C

Question: And the GI50 [2]?
Answer: < 100 nM
